# Assay results taken from patent publication US9078851B2, “Composition for preventing or treating a spinal cord injury” (UNIVERSITY-INDUSTRY COOPERATION GROUP OF KYUNG HEE, priority 2009, dated 2015).
# Experiments:
# [1] = tested on: cytokines at spinal cord injury site; experiment: Rat cytokine antibody array analysis of spinal cord tissue; type: in vivo; settings: tail vein injection
# Description: (§1) For the present experiment, male white mice (Sprague-Dawley 240-250 g, 7 weeks, 10 mice) were under general anesthetics by an intraperitoneal injection of Ketamin (80 mg/kg, Yuhan Corporation) and Rompun (7.4 mg/kg, Bayer Korea Corporation). Laminectomy was performed at spine T9-10 level to expose a spinal cord keeping intact dura. And then, rat was put on Spinal cord dropping device (NYU); spine processes at T8 and T11 sites were fixed by using a clamp, respectively; then, a rod (diameter 2 mm, weight 10 g) was dropped from 25 mm height vertical to dorsal part of spinal cord followed by suturing injury site muscle and skin. The rat of Sham-operated control group was performed only laminectomy at same area without damaging spinal cord injury (marked by ‘sham” in figures; hereinafter, the same as above).
# (§2) Substance P (marked by ‘SP’ in figures; hereinafter, the same as above) dissolved in saline of 5 nmol/kg concentration was injected through tail vein at immediately, 24 hours, and 48 hours after a spinal cord injury for experimental groups. At sham control group, same volume of saline (marked by ‘vehicle’ in figures; hereinafter, the same as above) without Substance P was injected at same time points. Operation were performed on an electric heating pad of 37° C., and then rat were transferred to cage after awake from the anesthetic. • (2) Preparation of Tissue
# A rat cytokine antibody array analysis was performed in order to investigate an effect of Substance P in expressing cytokine.
# At immediately, 1 d, and 2d, Substance P or saline (the same volume without Substance P) was injected through tail vein using the same method as (1) of Example 1. After operating, the experimental group (4 rats/group) and the control (4 rats/group) were sacrificed at 1 d and 5d, respectively. The spinal cord tissue (1 cm) obtained from an animal was homogenized with a dissolution buffer solution (10% glycerol, 20 mM Tris [pH 8.0], 137 mM NaCl, 1% Nonidet P-40, 0.5 mM EDTA, 10 mM Na2P2O7, 10 mM NaF, 1 μg/ml aprotinin, 10 μg/ml leupeptin, 1 mM vanadate and 1 mM PMSF). A protein amount of supernatant was determined by BCA assay (Pierce). Subsequently, a cytokine assay was performed according to instructions of Ray Biotech Morcross GA protocol. A membrane was blocked with a blocking buffer solution, then 150 μg of a protein sample was added, and reacted for 2 hours at a room temperature. The membrane was washed and 1 ml of primary antibody conjugated with a biotin was added, and placed at 4° C. overnight. Next day, the membrane was washed, and reacted with 2 ml of streptoavidin conjugated with horseradish peroxidase for 30 minutes at a room temperature. The membrane was developed using enhanced chemiluminescence-type solution, and the film was exposed to Radiography. Using USA NIH Image and Image J software (Hong et al., 2009), density quantification of array was performed.
# [2] = tested on: activated microglia/macrophage; experiment: Immunofluorescence staining of ED1 at spinal cord injury site; type: in vivo, rat; settings: 5 nmol/kg tail vein at immediately, 24 h, 48 h after spinal cord injury; 5 days after operation; vs control, rostal to caudal area
# Description: as §1
# as §2, with “Tissue […]” for “Tissue”
# [3] = five days after spinal cord injury, vs control
# [4] = one day after spinal cord injury
substance,measurement,setting,value
Substance P,amount of IL-10,[1]; 5 d after spinal cord injury,higher than the control
same,expression of IFN-γ,[1]; [3],slightly decreased
same,expression of IL-1α,[1]; [3],slightly decreased
same,amount of IL-6,[1]; [4],meaningfully increased
same,increase of amount of IL-4,[1]; [4],two times
same,increase of amount of IL-10,[1]; [4],ten times
same,activated microglia/macrophage expressing ED1 antigen,[2],significantly decreased
